Data from ChEMBL document CHEMBL1125208, “Applications of neural networks in quantitative structure-activity relationships of dihydrofolate reductase inhibitors” (J Med Chem, 1991).

Target: T1, Dihydrofolate reductase (Mus musculus) (UniProt P00375)
T1 sequence (whole entry): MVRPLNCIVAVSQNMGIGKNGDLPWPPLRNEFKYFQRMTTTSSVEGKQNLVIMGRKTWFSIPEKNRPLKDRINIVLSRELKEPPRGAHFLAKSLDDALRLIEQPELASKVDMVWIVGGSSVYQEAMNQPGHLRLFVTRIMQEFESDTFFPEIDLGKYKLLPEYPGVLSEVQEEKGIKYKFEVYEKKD
Experiment: Inhibition of dihydrofolate reductase from L1210 leukemia tumors

Structure (SMILES)	Log 1/C
CC1(C)N=C(N)N=C(N)N1c1cccc(OCCCCOc2ccc(S(=O)(=O)F)cc2)c1	7.49
CC1(C)N=C(N)N=C(N)N1c1ccc(OCCCOc2ccc(S(=O)(=O)F)cc2)c(Cl)c1	7.07
